Experimental data: US20040192888A1, “Method of preparing peptide with high yield and high purity using2-(4-nitrophenylsulfonyl) ethoxycarbonyl-amino acids” (priority 2001, published 2004)

Assay: Dissolution comparison of Nα-Nsc-amino acids and Nα-Fmoc-amino acids
Type: physicochemical
Parameters: key: ◯: dissolution; Δ: partial dissolution; X: no dissolution
Conditions: for Dissolved state, Fmoc, column B / Dissolved state, Fmoc, column A / Dissolved state, Fmoc, column D / Dissolved state, Fmoc, column C: Fmoc-amino acid; for Dissolved state, Fmoc, column B / Dissolved state, Fmoc, column A / Dissolved state, Nsc, column B / Dissolved state, Nsc, column A: 100 mg in 1 ml dichloromethane; for Dissolved state, Fmoc, column B / Dissolved state, Fmoc, column D / Dissolved state, Nsc, column B / Dissolved state, Nsc, column D: heated at 40° C. for 5 minutes, then room temperature 5 minutes; for Dissolved state, Fmoc, column A / Dissolved state, Fmoc, column C / Dissolved state, Nsc, column A / Dissolved state, Nsc, column C: stirring 5 minutes; for Dissolved state, Fmoc, column D / Dissolved state, Fmoc, column C / Dissolved state, Nsc, column D / Dissolved state, Nsc, column C: 15% DMF/DCM; for Dissolved state, Nsc, column B / Dissolved state, Nsc, column A / Dissolved state, Nsc, column D / Dissolved state, Nsc, column C: Nsc-amino acid
Protocol: Since only amino acids fully dissolved in a solvent can be used in acylation reactions, the following tests were performed to find solvent conditions in which amino acids can be completely dissolved.
100 mg of each of Nα-Nsc-amino acids and Nα-Fmoc-amino acids shown in Table 1, below, were precisely weighed and added to two containers added with 1 ml of dichloromethane (hereinafter, referred to as “DCM”), followed by stirring for 5 minutes. The dissolved states of amino acids were observed and are expressed in column A of the following Table 1.
Other amino acids, exclusive of totally dissolved amino acids, were heated in an oven at 40° C. for 5 minutes, and allowed to stand at room temperature for 5 minutes. Their dissolved states are shown in column B.
As such, the undissolved amino acids were dissolved in 15% dimethylformamide (hereinafter, referred to as “DMF”)/DCM in the same manner as in the case of the above column A, and their dissolved states are presented in column C.
Still undissolved amino acids were heated in an oven at 40° C. for 5 minutes, and allowed to stand at room temperature for 5 minutes. Their dissolved states were observed and are shown in column D.

C[C@H](NC(=O)OCC1c2ccccc2-c2ccccc21)C(=O)O [Fmoc-Ala, reference compound]
Dissolved state, Fmoc, column B: X | Dissolved state, Fmoc, column A: X | Dissolved state, Fmoc, column D: ◯ | Dissolved state, Fmoc, column C: Δ

CC(=O)NCSCC(NC(=O)OCC1c2ccccc2-c2ccccc21)C(=O)O (stereo not drawn) [Fmoc-Cys, reference compound]
Dissolved state, Fmoc, column B: X | Dissolved state, Fmoc, column A: X | Dissolved state, Fmoc, column D: ◯ | Dissolved state, Fmoc, column C: Δ

NC(=O)CC[C@H](NC(=O)OCC1c2ccccc2-c2ccccc21)C(=O)O [Fmoc-Gln, reference compound]
Dissolved state, Fmoc, column B: ◯ | Dissolved state, Fmoc, column A: ◯ | Dissolved state, Fmoc, column D: ◯ | Dissolved state, Fmoc, column C: ◯

O=C(O)CNC(=O)OCC1c2ccccc2-c2ccccc21 [Fmoc-Gly, reference compound]
Dissolved state, Fmoc, column B: X | Dissolved state, Fmoc, column A: X | Dissolved state, Fmoc, column D: ◯ | Dissolved state, Fmoc, column C: Δ

O=C(NC(Cc1cn(C(c2ccccc2)(c2ccccc2)c2ccccc2)cn1)C(=O)O)OCC1c2ccccc2-c2ccccc21 (stereo not drawn) [Fmoc-His, reference compound]
Dissolved state, Fmoc, column B: ◯ | Dissolved state, Fmoc, column A: ◯ | Dissolved state, Fmoc, column D: ◯ | Dissolved state, Fmoc, column C: ◯

CC[C@H](C)[C@H](NC(=O)OCC1c2ccccc2-c2ccccc21)C(=O)O [Fmoc-Iie, reference compound]
Dissolved state, Fmoc, column B: Δ | Dissolved state, Fmoc, column A: Δ | Dissolved state, Fmoc, column D: ◯ | Dissolved state, Fmoc, column C: ◯

CC(C)C[C@@H](NC(=O)OCC1c2ccccc2-c2ccccc21)C(=O)O [Fmoc-Leu, reference compound]
Dissolved state, Fmoc, column B: ◯ | Dissolved state, Fmoc, column A: Δ | Dissolved state, Fmoc, column D: ◯ | Dissolved state, Fmoc, column C: ◯

CC(C)(C)OC(=O)NCCCCC(NC(=O)OCC1c2ccccc2-c2ccccc21)C(=O)O (stereo not drawn) [Fmoc-Lys, reference compound]
Dissolved state, Fmoc, column B: ◯ | Dissolved state, Fmoc, column A: ◯ | Dissolved state, Fmoc, column D: ◯ | Dissolved state, Fmoc, column C: ◯

CSCC[C@H](NC(=O)OCC1c2ccccc2-c2ccccc21)C(=O)O [Fmoc-Met, reference compound]
Dissolved state, Fmoc, column B: ◯ | Dissolved state, Fmoc, column A: X | Dissolved state, Fmoc, column D: ◯ | Dissolved state, Fmoc, column C: ◯

O=C(N[C@@H](Cc1ccccc1)C(=O)O)OCC1c2ccccc2-c2ccccc21 [Fmoc-Phe, reference compound]
Dissolved state, Fmoc, column B: X | Dissolved state, Fmoc, column A: X | Dissolved state, Fmoc, column D: ◯ | Dissolved state, Fmoc, column C: Δ

O=C(O)[C@@H]1CCCN1C(=O)OCC1c2ccccc2-c2ccccc21 [Fmoc-Pro, reference compound]
Dissolved state, Fmoc, column B: ◯ | Dissolved state, Fmoc, column A: ◯ | Dissolved state, Fmoc, column D: ◯ | Dissolved state, Fmoc, column C: ◯

CC(C)(C)OCC(NC(=O)OCC1c2ccccc2-c2ccccc21)C(=O)O (stereo not drawn) [Fmoc-Ser, reference compound]
Dissolved state, Fmoc, column B: ◯ | Dissolved state, Fmoc, column A: ◯ | Dissolved state, Fmoc, column D: ◯ | Dissolved state, Fmoc, column C: ◯

CC(OC(C)(C)C)C(NC(=O)OCC1c2ccccc2-c2ccccc21)C(=O)O (stereo not drawn) [Fmoc-Thr, reference compound]
Dissolved state, Fmoc, column B: ◯ | Dissolved state, Fmoc, column A: ◯ | Dissolved state, Fmoc, column D: ◯ | Dissolved state, Fmoc, column C: ◯

O=C(NC(Cc1c[nH]c2ccccc12)C(=O)O)OCC1c2ccccc2-c2ccccc21 (stereo not drawn) [Fmoc-Trp, reference compound]
Dissolved state, Fmoc, column B: X | Dissolved state, Fmoc, column A: X | Dissolved state, Fmoc, column D: ◯ | Dissolved state, Fmoc, column C: ◯

CC(C)(C)Oc1ccc(CC(NC(=O)OCC2c3ccccc3-c3ccccc32)C(=O)O)cc1 (stereo not drawn) [Fmoc-Tyr, reference compound]
Dissolved state, Fmoc, column B: ◯ | Dissolved state, Fmoc, column A: Δ | Dissolved state, Fmoc, column D: ◯ | Dissolved state, Fmoc, column C: ◯

CC(C)[C@H](NC(=O)OCC1c2ccccc2-c2ccccc21)C(=O)O [Fmoc-Val, reference compound]
Dissolved state, Fmoc, column B: X | Dissolved state, Fmoc, column A: X | Dissolved state, Fmoc, column D: ◯ | Dissolved state, Fmoc, column C: ◯

C[C@H](NC(=O)OCCS(=O)(=O)c1ccc([N+](=O)[O-])cc1)C(=O)O [Nsc-Ala]
Dissolved state, Nsc, column B: X | Dissolved state, Nsc, column A: X | Dissolved state, Nsc, column D: ◯ | Dissolved state, Nsc, column C: ◯

Cc1c(C)c(S(=O)(=O)N=C(N)NCCCC(NC(=O)OCCS(=O)(=O)c2ccc([N+](=O)[O-])cc2)C(=O)O)c(C)c2c1OC(C)(C)C2 (stereo not drawn) [Nsc-Arg]
Dissolved state, Nsc, column B: ◯ | Dissolved state, Nsc, column A: ◯ | Dissolved state, Nsc, column D: ◯ | Dissolved state, Nsc, column C: ◯

O=C(CC(NC(=O)OCCS(=O)(=O)c1ccc([N+](=O)[O-])cc1)C(=O)O)NC(c1ccccc1)(c1ccccc1)c1ccccc1 (stereo not drawn) [Nsc-Asn]
Dissolved state, Nsc, column B: X | Dissolved state, Nsc, column A: X | Dissolved state, Nsc, column D: ◯ | Dissolved state, Nsc, column C: ◯

CC(C)(C)OC(=O)CCC(NC(=O)OCCS(=O)(=O)c1ccc([N+](=O)[O-])cc1)C(=O)O (stereo not drawn) [Nsc-Glu]
Dissolved state, Nsc, column B: ◯ | Dissolved state, Nsc, column A: ◯ | Dissolved state, Nsc, column D: ◯ | Dissolved state, Nsc, column C: ◯

O=C(O)CNC(=O)OCCS(=O)(=O)c1ccc([N+](=O)[O-])cc1 [Nsc-Gly]
Dissolved state, Nsc, column B: X | Dissolved state, Nsc, column A: X | Dissolved state, Nsc, column D: ◯ | Dissolved state, Nsc, column C: Δ

O=C(NC(Cc1cn(C(c2ccccc2)(c2ccccc2)c2ccccc2)cn1)C(=O)O)OCCS(=O)(=O)c1ccc([N+](=O)[O-])cc1 (stereo not drawn) [Nsc-His]
Dissolved state, Nsc, column B: ◯ | Dissolved state, Nsc, column A: Δ | Dissolved state, Nsc, column D: ◯ | Dissolved state, Nsc, column C: ◯

CC[C@H](C)[C@H](NC(=O)OCCS(=O)(=O)c1ccc([N+](=O)[O-])cc1)C(=O)O [Nsc-Iie]
Dissolved state, Nsc, column B: ◯ | Dissolved state, Nsc, column A: Δ | Dissolved state, Nsc, column D: ◯ | Dissolved state, Nsc, column C: ◯

CC(C)CC(NC(=O)OCCS(=O)(=O)c1ccc([N+](=O)[O-])cc1)C(=O)O (stereo not drawn) [Nsc-Leu]
Dissolved state, Nsc, column B: X | Dissolved state, Nsc, column A: X | Dissolved state, Nsc, column D: ◯ | Dissolved state, Nsc, column C: Δ

CC(C)(C)OC(=O)NCCCCC(NC(=O)OCCS(=O)(=O)c1ccc([N+](=O)[O-])cc1)C(=O)O (stereo not drawn) [Nsc-Lys]
Dissolved state, Nsc, column B: ◯ | Dissolved state, Nsc, column A: ◯ | Dissolved state, Nsc, column D: ◯ | Dissolved state, Nsc, column C: ◯

CSCC[C@H](NC(=O)OCCS(=O)(=O)c1ccc([N+](=O)[O-])cc1)C(=O)O [Nsc-Met]
Dissolved state, Nsc, column B: ◯ | Dissolved state, Nsc, column A: Δ | Dissolved state, Nsc, column D: ◯ | Dissolved state, Nsc, column C: ◯

O=C(N[C@@H](Cc1ccccc1)C(=O)O)OCCS(=O)(=O)c1ccc([N+](=O)[O-])cc1 [Nsc-Phe]
Dissolved state, Nsc, column B: X | Dissolved state, Nsc, column A: X | Dissolved state, Nsc, column D: ◯ | Dissolved state, Nsc, column C: ◯

O=C(O)[C@@H]1CCCN1C(=O)OCCS(=O)(=O)c1ccc([N+](=O)[O-])cc1 [Nsc-Pro]
Dissolved state, Nsc, column B: ◯ | Dissolved state, Nsc, column A: ◯ | Dissolved state, Nsc, column D: ◯ | Dissolved state, Nsc, column C: ◯

CC(C)(C)OCC(NC(=O)OCCS(=O)(=O)c1ccc([N+](=O)[O-])cc1)C(=O)O (stereo not drawn) [Nsc-Ser]
Dissolved state, Nsc, column B: ◯ | Dissolved state, Nsc, column A: ◯ | Dissolved state, Nsc, column D: ◯ | Dissolved state, Nsc, column C: ◯

CC(OC(C)(C)C)C(NC(=O)OCCS(=O)(=O)c1ccc([N+](=O)[O-])cc1)C(=O)O (stereo not drawn) [Nsc-Thr]
Dissolved state, Nsc, column B: ◯ | Dissolved state, Nsc, column A: ◯ | Dissolved state, Nsc, column D: ◯ | Dissolved state, Nsc, column C: ◯

O=C(N[C@@H](Cc1c[nH]c2ccccc12)C(=O)O)OCCS(=O)(=O)c1ccc([N+](=O)[O-])cc1 [Nsc-Trp]
Dissolved state, Nsc, column B: X | Dissolved state, Nsc, column A: X | Dissolved state, Nsc, column D: ◯ | Dissolved state, Nsc, column C: Δ

CC(C)(C)Oc1ccc(CC(NC(=O)OCCS(=O)(=O)c2ccc([N+](=O)[O-])cc2)C(=O)O)cc1 (stereo not drawn) [Nsc-Tyr]
Dissolved state, Nsc, column B: ◯ | Dissolved state, Nsc, column A: ◯ | Dissolved state, Nsc, column D: ◯ | Dissolved state, Nsc, column C: ◯

CC(C)C(NC(=O)OCCS(=O)(=O)c1ccc([N+](=O)[O-])cc1)C(=O)O (stereo not drawn) [Nsc-Val]
Dissolved state, Nsc, column B: ◯ | Dissolved state, Nsc, column A: ◯ | Dissolved state, Nsc, column D: ◯ | Dissolved state, Nsc, column C: ◯
